These results are taken from patent publication US11059823B2, “Small molecule inhibitors of the JAK family of kinases” (Janssen Pharmaceutica NV, priority 2016, dated 2021).

A short description of data set [1]: Physical stability of crystalline embodiments of compound Ex. 1 (polymorph screening, HT-XRPD). To be noted: for physical stability after exposure to AAC: accelerated aging conditions, 40° C./70% RH, two days. Type of data set: physicochemical. The method, then: Long term slurry experiments were performed by suspending compound embodiment 1s in twenty neat solvents and stirred at room temperature for two weeks and at 50° C. for one week. Upon completion of the equilibration time, the residual solids were separated from the mother liquors. The solids were dried under ambient conditions and dried under vacuum (5 mBar) before being analyzed by HT-XRPD. Subsequently, the solids were exposed to accelerated aging conditions (40° C./70% relative humidity) for two days and again analyzed by HT-XRPD.
Embodiment is converted to hydrated embodiment 10 when it was exposed to 100% RH at 25° C. […] This behavior is attributable to an unequally strong binding of all the hydration/solvation molecules. In this case, embodiment 10 would have a less strongly bound second water molecule that would be lost under ambient conditions. More precisely, the physical stability of embodiment is was investigated in climate chambers by exposing a 20 mg sample of such embodiment to 40° C. and 70% relative humidity for four days, and another 20 mg sample of the same embodiment was exposed also for four days to 25° C. and 100% relative humidity. After four days, the various solid samples were analyzed by HR-XRPD, the crystal cell parameters were determined and the diffractograms were indexed. From bottom to top, the first diffractogram in FIG. 6 corresponds to embodiment is as starting material, and the second corresponds to the same form after a 4-day exposure to 40° C. and 70% relative humidity, noted as “1s 70 RH” in the same figure. […] Indexing for such form was not possible due to the small amount in which it was present. The third diffractogram corresponds to embodiment is after a 4-day exposure to 25° C. and 100% relative humidity, noted as “10” in the same figure. […] Upon dehydration, both embodiments 1s and 10 re-crystallized to the anhydrous form with a melting point of 148° C.
The mother liquors of the solvent equilibration experiments performed at 50° C. were filtered at 50° C. to remove any particulate matter. […] When solids had precipitated during aging these solids were separated from the liquid, dried under ambient conditions and under vacuum, and analyzed by HT-XRPD. The remaining mother liquors were allowed to slowly evaporate and the remaining solids were analyzed by HT-XRPD. The samples in which no precipitation occurred were placed under vacuum and the dried solids were analyzed by HT-XRPD. All the solids were then exposed to AAC (2 days at 40° C./70% RH) and re-analyzed by HT-XRPD.
The cooling/evaporative crystallization experiments at L scale were performed in a 96-well plate, using 12 neat solvents and 12 solvent mixtures and applying four temperature profiles. […] Upon completion of the temperature profile the solvents were allowed to evaporate at low ambient pressure (24 hours) and the remaining solids were analyzed by HT-XRPD before and after exposure to AAC for 2 days (40° C./70% RH).
The cooling crystallization experiments with hot filtration were performed from supersaturated solutions of compound Ex. 1 prepared at 50° C. in different solvent mixtures. […] The vials in which solids had precipitated after the temperature profile were centrifuged and the solids were separated from the liquid and analyzed by HT-XRPD (after drying under vacuum). If no solids had precipitated the solutions were evaporated under vacuum and the solids analyzed by HT-XRPD. […]

For data set [2], the system named is MDCK-MDR1 cell line. Briefly: MDCK-MDR1 permeability assay. Conditions: apical-to-basolateral, with P-gp inhibitor elacridar (2 μM), 5 μM, 60 min. The format is in vitro ADME. The method, then:
Permeability measurements were conducted according to the Cyprotex protocol using the MDCK-MDR1 cell line obtained from the NIH (Rockville, Md., USA). […] The cells in this assay form a cohesive sheet of a single cell layer filing the surface area of the culture dish, also known as a confluent monolayer, and on day four the test compound was added to the apical side of the membrane and the transport of the compound across the monolayer was monitored over a time period of 60 min.
Test compounds were dissolved in DMSO at a concentration of 10 mM. The dosing solutions were prepared by diluting test compound with assay buffer (Hanks Balanced Salt Solution), pH 7.4, at a final concentration of 5 μM. For assessment of apical to basolateral (“A-B”) permeability, buffer was removed from the apical compartment and replaced with test compound dosing solution with or without the permeability glycoprotein (“PgP”, “P-gP”, “Pgp” or “P-gp”) inhibitor elacridar (2 μM). For assessment of basolateral to apical (“B-A”) permeability, buffer was removed from the companion plate and replaced with test compound dosing solution. Incubations were carried out in duplicate at 37° C. in an atmosphere of 5% CO2 with a relative humidity of 95%. Each assay included the reference markers propranolol (high permeability) and prazosin (PgP substrate). After incubation for 60 minutes, apical and basolateral samples were diluted and test compounds quantified by LC/MS/MS using an 8-point calibration in the range 0.0039 to 3 μM with appropriate dilution of the samples (receiver dilution factor=1; donor and Co dilution factor=10). The permeability coefficient (Papp) for each compound was calculated from the following equation: Papp=(dQ/dt)/(C0×S), where dQ/dt is the rate of permeation of the drug across the cells, C0 is the donor compartment concentration at time zero, and S is the area of the cell monolayer.
Papp(A-B) gives an indication of permeation extent across the cells in this assay, which is envisaged to model the transcellular transport across Pgp-expressing cells, such as Pgp-expressing gastrointestinal tract cells.

The test system of data set [3] is moderate to severe CD. To be noted: 4 week/Phase 2 clinical trial; cited from earlier work.

`CC(C)(O)CNC(=O)Cc1nc2cnc3[nH]ccc3c2n1[C@H]1CC[C@H](CC#N)CC1` [Embodiment 2]: the “physical stability after exposure to AAC” value in data set [1] is reported as “converted to embodiment 3e”.

With `CC(C)(O)CNC(=O)Cc1nc2cnc3[nH]ccc3c2n1[C@H]1CC[C@H](CC#N)CC1` [Embodiment 5], in data set [1], the “physical stability after exposure to AAC” value is “physically unstable”.

For the molecule `CC(C)(O)CNC(=O)Cc1nc2cnc3[nH]ccc3c2n1[C@H]1CC[C@H](CC#N)CC1` [Embodiment 6], the “physical stability after exposure to AAC” value in data set [1] is listed as “stable solid form”.

Regarding `CC(C)(O)CNC(=O)Cc1nc2cnc3[nH]ccc3c2n1[C@H]1CC[C@H](CC#N)CC1` [Embodiment 7], the “physical stability after exposure to AAC” value in data set [1] is “physically stable”.

For `CC(C)(O)CNC(=O)Cc1nc2cnc3[nH]ccc3c2n1[C@H]1CC[C@H](CC#N)CC1` [Embodiment 10], the “physical stability under ambient conditions” value in data set [1] (ambient conditions) is on record as “limited physical stability”.

Turning to `N#CC[C@H]1CC[C@H](n2c(CC(=O)NC3CCOCC3)nc3cnc4[nH]ccc4c32)CC1` [Ex. 5, 2-(1-((1r,4r)-4-(Cyanomethyl)cyclohexyl)-1,6-dihydroimidazo[4,5-d]pyrrolo[2,3-b]pyridin-2-yl)-N-(tetrahydro-2H-pyran-4-yl)acetamide], the “MDCK-MDR1 P^eapp(A-B) @ 5 (μM)” value in data set [2] was 0.5 10^−6 cm/sec.

As to `C[C@@H]1CCN(C(=O)CC#N)C[C@@H]1N(C)c1ncnc2[nH]ccc12` [tofacitinib], the “clinical efficacy in Crohn's disease” value in data set [3] is “failure to achieve clinical efficacy”.
